Laboratory results reported in PubChem BioAssay (NCI).
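Results reflect a 48-hour exposure of cells in 96-well plates to compound at five concentrations. GI50: concentration for 50% inhibition of growth. TGI: concentration producing complete growth inhibition.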

Tests used:
Experiment in all cases: inhibition of tumour cell growth, NCI panel, 48 h
IGROV1 ovarian = test system: IGROV1 ovarian
RXF 393 renal = test system: RXF 393 renal
M14 melanoma = test system: M14 melanoma
U251 CNS = test system: U251 CNS
NCI-H460 lung = test system: NCI-H460 lung
CCRF-CEM leukemia = test system: CCRF-CEM leukemia
TK-10 renal = test system: TK-10 renal
LOX IMVI melanoma = test system: LOX IMVI melanoma
HOP-62 NSCLC = test system: HOP-62 NSCLC
HOP-92 NSCLC = test system: HOP-92 NSCLC

Compound CCN1CCC[C@H]1c1cc(O)c2c(c1OC)C[C@H]1C[C@H]3[C@H](N)C(=O)C(C(N)=O)=C(O)[C@@]3(O)C(=O)C1=C2O has a GI50 (IGROV1 ovarian) of 0.0419 µM, a TGI (IGROV1 ovarian) of 4.95 µM and a GI50 (RXF 393 renal) of 0.0312 µM. It also gave a TGI (RXF 393 renal) of 0.247 µM, a GI50 (M14 melanoma) of 0.0492 µM and a TGI (M14 melanoma) of 1.37 µM. It also gave a GI50 (U251 CNS) of 0.0442 µM, a TGI (U251 CNS) of 1.88 µM and a GI50 (NCI-H460 lung) of 0.0602 µM. For the same compound, the TGI (NCI-H460 lung) was 1.9 µM, the GI50 (CCRF-CEM leukemia) was 0.0634 µM and the TGI (CCRF-CEM leukemia) was 1.73 µM. The GI50 (TK-10 renal) was 0.0626 µM, the TGI (TK-10 renal) was 2.42 µM and the GI50 (LOX IMVI melanoma) was 0.0386 µM. For the same compound, the TGI (LOX IMVI melanoma) was 1.23 µM, the GI50 (HOP-62 NSCLC) was 0.0517 µM and the TGI (HOP-62 NSCLC) was 1.67 µM. For the same compound, the GI50 (HOP-92 NSCLC) was 0.0522 µM and the TGI (HOP-92 NSCLC) was 3.52 µM.
With COC(=O)[C@]12CC[C@@H](C)[C@H](C)[C@@H]1C1=CC[C@@H]3[C@@]4(C)C[C@@H](OC(=O)c5ccco5)[C@H](O)[C@@](C)(CO)[C@@H]4[C@H](O)C[C@@]3(C)[C@]1(C)CC2 the GI50 (IGROV1 ovarian) was 2.42 µM, the TGI (IGROV1 ovarian) was 6.33 µM and the GI50 (RXF 393 renal) was 1.66 µM. The TGI (RXF 393 renal) was 3.34 µM, the GI50 (M14 melanoma) was 2.26 µM and the TGI (M14 melanoma) was 4.74 µM. For the same compound, the GI50 (U251 CNS) was 1.97 µM, the TGI (U251 CNS) was 4.21 µM and the GI50 (NCI-H460 lung) was 1.97 µM. The TGI (NCI-H460 lung) was 3.87 µM, the GI50 (CCRF-CEM leukemia) was 2.41 µM and the TGI (CCRF-CEM leukemia) was 5.77 µM. It also gave a GI50 (TK-10 renal) of 2.49 µM, a TGI (TK-10 renal) of 7.85 µM and a GI50 (LOX IMVI melanoma) of 1.68 µM. It also gave a TGI (LOX IMVI melanoma) of 3.1 µM, a GI50 (HOP-62 NSCLC) of 2.03 µM and a TGI (HOP-62 NSCLC) of 4 µM. The GI50 (HOP-92 NSCLC) was 2.59 µM and the TGI (HOP-92 NSCLC) was 6.19 µM.
Compound OC(c1ccccc1)(c1ccccc1)c1ccccn1 has a TGI (IGROV1 ovarian) of over 100 µM, a TGI (RXF 393 renal) of over 100 µM and a TGI (M14 melanoma) of over 100 µM. It also gave a TGI (U251 CNS) of over 100 µM, a TGI (NCI-H460 lung) of over 100 µM and a TGI (CCRF-CEM leukemia) of over 100 µM. For the same compound, the TGI (TK-10 renal) was over 100 µM, the TGI (LOX IMVI melanoma) was over 100 µM and the TGI (HOP-62 NSCLC) was over 100 µM. The TGI (HOP-92 NSCLC) was over 100 µM.
O=C(c1cc(=O)c2ccc(O)cc2o1)c1ccc(Cl)cc1Cl showed a TGI (IGROV1 ovarian) of over 100 µM, a TGI (RXF 393 renal) of 98.4 µM and a TGI (M14 melanoma) of 71.3 µM. It also gave a TGI (U251 CNS) of over 100 µM, a TGI (NCI-H460 lung) of over 100 µM and a TGI (CCRF-CEM leukemia) of 39.6 µM. For the same compound, the TGI (TK-10 renal) was over 100 µM, the TGI (LOX IMVI melanoma) was over 59.1 µM and the TGI (HOP-62 NSCLC) was over 100 µM. For the same compound, the TGI (HOP-92 NSCLC) was over 73.4 µM.
In the case of COc1cc2c(cc1OCCCCNC(=O)c1cc3ccccc3[nH]1)N=CC1CCCN1C2=O (stereo not given), the GI50 (IGROV1 ovarian) is reported as 18.1 µM, the TGI (IGROV1 ovarian) is reported as over 100 µM and the GI50 (RXF 393 renal) is reported as 2.35 µM. The TGI (RXF 393 renal) was 6.28 µM, the GI50 (M14 melanoma) was 28.2 µM and the TGI (M14 melanoma) was over 100 µM. For the same compound, the GI50 (U251 CNS) was 10.5 µM, the TGI (U251 CNS) was over 100 µM and the GI50 (NCI-H460 lung) was 11.9 µM. It also gave a TGI (NCI-H460 lung) of 65.1 µM, a GI50 (CCRF-CEM leukemia) of 3.45 µM and a TGI (CCRF-CEM leukemia) of over 100 µM. For the same compound, the GI50 (TK-10 renal) was 14.7 µM, the TGI (TK-10 renal) was 33.6 µM and the GI50 (LOX IMVI melanoma) was 8.96 µM. It also gave a TGI (LOX IMVI melanoma) of 63.8 µM, a GI50 (HOP-62 NSCLC) of 31.5 µM and a TGI (HOP-62 NSCLC) of over 100 µM. For the same compound, the GI50 (HOP-92 NSCLC) was 12.2 µM and the TGI (HOP-92 NSCLC) was 75.4 µM.
In the case of O=c1[nH]c(=S)[nH]c2c1sc(=S)n2-c1ccccc1, the TGI (IGROV1 ovarian) is reported as over 100 µM, the TGI (RXF 393 renal) is reported as over 100 µM and the TGI (M14 melanoma) is reported as over 100 µM. The TGI (U251 CNS) was over 100 µM, the TGI (NCI-H460 lung) was over 100 µM and the TGI (CCRF-CEM leukemia) was over 100 µM. For the same compound, the TGI (TK-10 renal) was over 100 µM, the TGI (LOX IMVI melanoma) was over 100 µM and the TGI (HOP-62 NSCLC) was over 100 µM. The TGI (HOP-92 NSCLC) was over 100 µM.
Nc1ccc2c(c1)C(=O)c1ccc(F)cc1-2 showed a TGI (IGROV1 ovarian) of over 100 µM, a TGI (RXF 393 renal) of over 100 µM and a TGI (M14 melanoma) of over 100 µM. It also gave a TGI (U251 CNS) of over 100 µM, a TGI (NCI-H460 lung) of over 100 µM and a TGI (CCRF-CEM leukemia) of over 100 µM. The TGI (TK-10 renal) was over 100 µM, the TGI (LOX IMVI melanoma) was over 100 µM and the TGI (HOP-62 NSCLC) was over 100 µM. It also gave a TGI (HOP-92 NSCLC) of over 100 µM.
O=C(Oc1cccnc1)c1ccccc1Nc1ccnc(C(F)(F)F)c1 gave a GI50 (IGROV1 ovarian) of 21.7 µM, a TGI (IGROV1 ovarian) of over 100 µM and a GI50 (RXF 393 renal) of 0.473 µM. For the same compound, the TGI (RXF 393 renal) was 13.5 µM, the GI50 (M14 melanoma) was 0.0536 µM and the TGI (M14 melanoma) was 3.11 µM. The GI50 (U251 CNS) was 0.33 µM, the TGI (U251 CNS) was over 96.2 µM and the GI50 (NCI-H460 lung) was 0.342 µM. For the same compound, the TGI (NCI-H460 lung) was over 35 µM, the GI50 (CCRF-CEM leukemia) was 0.0334 µM and the TGI (CCRF-CEM leukemia) was over 100 µM. For the same compound, the GI50 (TK-10 renal) was 0.369 µM, the TGI (TK-10 renal) was 31.8 µM and the GI50 (LOX IMVI melanoma) was 0.0406 µM. The TGI (LOX IMVI melanoma) was over 37.8 µM, the GI50 (HOP-62 NSCLC) was 0.0473 µM and the TGI (HOP-62 NSCLC) was 0.214 µM. It also gave a GI50 (HOP-92 NSCLC) of 6.64 µM and a TGI (HOP-92 NSCLC) of over 100 µM.
CC1=C(C(=O)Nc2cccc(C(F)(F)F)c2)C(c2ccc(O)cc2)C(C(=O)Nc2cccc(C(F)(F)F)c2)=C(C)N1 showed a TGI (IGROV1 ovarian) of 89.2 µM, a TGI (RXF 393 renal) of 36.9 µM and a TGI (M14 melanoma) of 35.5 µM. For the same compound, the TGI (U251 CNS) was 43.6 µM, the TGI (NCI-H460 lung) was 43.1 µM and the TGI (CCRF-CEM leukemia) was 66.4 µM. For the same compound, the TGI (TK-10 renal) was 66.6 µM, the TGI (LOX IMVI melanoma) was 33.1 µM and the TGI (HOP-62 NSCLC) was 45.5 µM. The TGI (HOP-92 NSCLC) was 39.3 µM.
CCOC(=O)C1=C(Nc2ccccc2)OC/C1=N\NC(=O)Cc1ccccc1 gave a TGI (IGROV1 ovarian) of over 50 µM, a TGI (RXF 393 renal) of over 50 µM and a TGI (M14 melanoma) of over 50 µM. For the same compound, the TGI (U251 CNS) was over 50 µM, the TGI (NCI-H460 lung) was over 50 µM and the TGI (CCRF-CEM leukemia) was over 50 µM. It also gave a TGI (TK-10 renal) of over 50 µM, a TGI (LOX IMVI melanoma) of over 50 µM and a TGI (HOP-62 NSCLC) of over 50 µM. The TGI (HOP-92 NSCLC) was over 50 µM.
Work on CN(C)CC(C(=O)c1ccccc1)c1ccccc1 (stereo not given) yielded a GI50 (IGROV1 ovarian) of 2.2 µM, a TGI (IGROV1 ovarian) of 5.47 µM and a GI50 (RXF 393 renal) of 1.69 µM. The TGI (RXF 393 renal) was 4.46 µM, the GI50 (M14 melanoma) was 1.46 µM and the TGI (M14 melanoma) was 2.92 µM. It also gave a GI50 (U251 CNS) of 1.56 µM, a TGI (U251 CNS) of 3.13 µM and a GI50 (NCI-H460 lung) of 3.93 µM. It also gave a TGI (NCI-H460 lung) of 16 µM, a GI50 (CCRF-CEM leukemia) of 0.755 µM and a TGI (CCRF-CEM leukemia) of 10.9 µM. For the same compound, the GI50 (TK-10 renal) was 1.3 µM, the TGI (TK-10 renal) was 2.67 µM and the GI50 (LOX IMVI melanoma) was 0.765 µM. For the same compound, the TGI (LOX IMVI melanoma) was 2.33 µM, the GI50 (HOP-62 NSCLC) was 11.3 µM and the TGI (HOP-62 NSCLC) was 23.5 µM. It also gave a GI50 (HOP-92 NSCLC) of 2.28 µM and a TGI (HOP-92 NSCLC) of 9.54 µM.
Compound CC(C)=CC/C=C(/C)[C@H]1CC[C@]2(C)[C@@H]1CC[C@@H]1[C@@]3(C)CCC(=O)NC(C)(C)[C@@H]3CC[C@]12C has a GI50 (IGROV1 ovarian) of 10.6 µM, a TGI (IGROV1 ovarian) of 26.5 µM and a GI50 (RXF 393 renal) of 16.8 µM. For the same compound, the TGI (RXF 393 renal) was 32.4 µM, the GI50 (M14 melanoma) was 17.8 µM and the TGI (M14 melanoma) was 39.3 µM. The GI50 (U251 CNS) was 17.2 µM, the TGI (U251 CNS) was 36.5 µM and the GI50 (NCI-H460 lung) was 33.9 µM. The TGI (NCI-H460 lung) was over 100 µM, the GI50 (CCRF-CEM leukemia) was 12.4 µM and the TGI (CCRF-CEM leukemia) was 47.9 µM. For the same compound, the GI50 (TK-10 renal) was 47.5 µM, the TGI (TK-10 renal) was over 100 µM and the GI50 (LOX IMVI melanoma) was 17.9 µM. For the same compound, the TGI (LOX IMVI melanoma) was 32.4 µM, the GI50 (HOP-62 NSCLC) was 20.8 µM and the TGI (HOP-62 NSCLC) was 44.7 µM. It also gave a GI50 (HOP-92 NSCLC) of 13.8 µM and a TGI (HOP-92 NSCLC) of 28.2 µM.
